Measurements from publication PMC5736175, “Nicotinic alpha 7 receptor agonists EVP-6124 and BMS-933043, attenuate scopolamine-induced deficits in visuo-spatial paired associates learning” (PLoS ONE, 2017).
Several values for one entry are separate records, joined by “and”; a condition that tells them apart may be missing. Identical values can stand only once. Entries after “also recorded” stand apart in the source; their conditions may differ.

Experiments:
[1] = system: scopolamine-treated cynomolgus monkeys; experiment: Scopolamine-induced impairment of vsPAL task performance, treatment + scopolamine; type: in vivo, cynomolgus monkeys (Macaca Fasicularis)
Experimental: Doses cited refer to the free base form of the compounds. […] All drugs were administered intramuscularly (i.m.) in a dosing volume of 0.1–0.2 ml/kg.
On days when compound testing occurred, approximately half the cohort received one dose and the remainder another dose of the same compound and therefore dose order was staggered between animals. With the exception of EVP-6124, all other compounds were tested in a single dose response study.
Cohen’s d values of >0.2, >0.5 and >0.8 are described using the conventions of small, medium, and large effects, respectively.

human nAChR α7 [2] = system: human nAChR α7; set-up: method as in PMID 20959364; conditions: QM7 cells expressing human nAChR α7; cited from earlier work
5-HT3 receptor = conditions: cited from earlier work
[3] = Plasma pharmacokinetics in satellite animals (LC-MS/MS), 60 min after i.m. dose; conditions: for concentration at 60 min: cynomolgus monkey, plasma, intramuscular
Experimental: For all compounds, plasma pharmacokinetic studies were conducted in a separate cohort of cynomolgus monkeys (N = 2–3 subjects per dose) before beginning vsPAL testing to help guide dose selection. Blood samples were obtained with the animals awake and sitting in a primate chair.
Plasma concentrations of test compounds were determined using LC-MS/MS assays. In brief, 50 μL plasma and sample containing compounds was extracted by protein precipitation method with 150 μL acetonitrile containing an internal standard. A 5 μL sample of supernatant was injected into the LC-MS/MS system. Analytes were separated by reversed phase chromatography and detection of each analyte was achieved through selected reaction monitoring mode of mass spectrometry. Samples were quantified by calculated peak area ratio of analyte and internal standard against a calibration curve.

human nAChR α7 [4] = system: human nAChR α7; set-up: method as in PMID 20959364, PMID 22085888; conditions: xenopus oocytes expressing human nAChR α7; cited from earlier work
[5] = RG3487 0.03 mg/kg + Individualized Scopolamine, MEAN of 8 animals
[6] = RG3487 0.03 mg/kg + Individualized Scopolamine, individual animals, 0.03 mg/kg
[7] = RG3487 0.03 mg/kg + scopolamine, MEAN of 8 animals
[8] = RG3487 0.03 mg/kg + scopolamine, individual animals, 0.03 mg/kg
[9] = RG3487 0.1 mg/kg + Individualized Scopolamine, MEAN of 8 animals
[10] = RG3487 0.1 mg/kg + Individualized Scopolamine, individual animals, 0.1 mg/kg
[11] = RG3487 0.1 mg/kg + scopolamine, MEAN of 8 animals
[12] = RG3487 0.1 mg/kg + scopolamine, individual animals, 0.1 mg/kg
[13] = RG3487 0.3 mg/kg + scopolamine, MEAN of 8 animals
[14] = RG3487 0.3 mg/kg + scopolamine, individual animals, 0.3 mg/kg
[15] = RG3487 1.0 mg/kg + scopolamine, MEAN of 8 animals
[16] = RG3487 1.0 mg/kg + scopolamine, individual animals, 1 mg/kg
[17] = all doses of the study, for EVP-6124 study (1)
[18] = compound 0.03 mg/kg i.m. + Scopolamine
[19] = compound 0.10 mg/kg i.m. + Scopolamine
[20] = compound 0.30 mg/kg i.m. + Scopolamine
[21] = compound 1.00 mg/kg i.m. + Scopolamine

SMILES: Cl.O=C(N[C@@H]1CN2CCC1CC2)c1n[nH]c2ccccc12 [RG3487, N-[(3S)-1-Azabicyclo[2.2.2]oct-3-yl]-1H-indazole-3-carboxamide HCl]
- Initial Correct, 3 Stimuli [1, 5]: 43.8%
- Initial Correct, 4 Stimuli [1, 5]: 25.0%
- Initial Correct, Overall Mean % Correct [1, 5]: 50.8%
- Initial correct, 2 Stimuli [1, 5]: 83.8%
- Initial Correct, 3 Stimuli [1, 6]: 60.0% and 20.0% and 40.0% and 30.0% and 90.0% and 10.0% and 80.0%
- Initial Correct, 4 Stimuli [1, 6]: 30.0% and 0.0% and 50.0% and 40.0%
- Initial Correct, Overall Mean % Correct [1, 6]: 60.0% and 36.7% and 46.7% and 76.7% and 40.0% and 30.0% and 70.0%
- Initial correct, 2 Stimuli [1, 6]: 90.0% and 70.0% and 60.0% and 100.0% and 80.0%
- Eventual Correct, 4 Stimuli ([1]; RG3487 0.03 mg/kg + scopolamine, MEAN): 59.5%
- % Completion [1, 7]: 73.5%
- Average Response Latency (Avg Rsp Lat) [1, 7]: 2136.0 ms
- Eventual Correct, 2 Stimuli [1, 7]: 98.8%
- Eventual Correct, 3 Stimuli [1, 7]: 83.8%
- Eventual Correct, Overall Mean % Correct [1, 7]: 78.2%
- % Completion [1, 8]: 66.2% and 53.1% and 100.0% and 69.9% and 90.5% and 22.8% and 97.3% and 88.2%
- Average Response Latency (Avg Rsp Lat) [1, 8]: 2657.3 ms and 2531.6 ms and 1590.6 ms and 1325.7 ms and 2502.3 ms and 1742.8 ms and 2670.3 ms and 2067.1 ms
- Eventual Correct, 2 Stimuli [1, 8]: 100.0% and 90.0%
- Eventual Correct, 3 Stimuli [1, 8]: 100.0% and 60.0% and 70.0% and 50.0% and 90.0%
- Eventual Correct, 4 Stimuli [1, 8]: 50.0% and 0.0% and 90.0% and 70.0% and 100.0% and 16.7%
- Eventual Correct, Overall Mean % Correct [1, 8]: 83.3% and 50.0% and 96.7% and 80.0% and 100.0% and 68.9%
- Initial Correct, 3 Stimuli [1, 9]: 47.5%
- Initial Correct, 4 Stimuli [1, 9]: 13.8%
- Initial Correct, Overall Mean % Correct [1, 9]: 50.4%
- Initial correct, 2 Stimuli [1, 9]: 90.0%
- Initial Correct, 3 Stimuli [1, 10]: 70.0% and 10.0% and 60.0% and 50.0% and 80.0% and 40.0% and 30.0%
- Initial Correct, 4 Stimuli [1, 10]: 20.0% and 0.0% and 30.0% and 10.0% and 50.0%
- Initial Correct, Overall Mean % Correct [1, 10]: 63.3% and 30.0% and 46.7% and 56.7% and 43.3%
- Initial correct, 2 Stimuli [1, 10]: 100.0% and 80.0% and 90.0%
- % Completion [1, 11]: 75.6%
- Average Response Latency (Avg Rsp Lat) [1, 11]: 2202.7 ms
- Eventual Correct, 2 Stimuli [1, 11]: 100.0%
- Eventual Correct, 3 Stimuli [1, 11]: 91.3%
- Eventual Correct, 4 Stimuli [1, 11]: 48.1%
- Eventual Correct, Overall Mean % Correct [1, 11]: 79.8%
- Eventual Correct, 2 Stimuli ([1]; RG3487 0.1 mg/kg + scopolamine, individual animals): 100.0%
- % Completion [1, 12]: 58.8% and 65.1% and 100.0% and 88.7% and 67.1% and 35.0% and 91.9% and 98.1%
- Average Response Latency (Avg Rsp Lat) [1, 12]: 2536.1 ms and 2248.5 ms and 1598.6 ms and 1289.8 ms and 2048.9 ms and 2712.3 ms and 2472.3 ms and 2715.2 ms
- Eventual Correct, 3 Stimuli [1, 12]: 100.0% and 80.0% and 70.0%
- Eventual Correct, 4 Stimuli [1, 12]: 50.0% and 16.7% and 80.0% and 70.0% and 40.0% and 11.1% and 100.0%
- Eventual Correct, Overall Mean % Correct [1, 12]: 83.3% and 65.6% and 93.3% and 90.0% and 80.0% and 63.7% and 62.2% and 100.0%
- % Completion [1, 13]: 74.7%
- Average Response Latency (Avg Rsp Lat) [1, 13]: 2047.1 ms
- Initial Correct, 3 Stimuli [1, 13]: 42.5%
- Initial Correct, 4 Stimuli [1, 13]: 20.4%
- Initial Correct, Overall Mean % Correct [1, 13]: 48.9%
- Initial correct, 2 Stimuli [1, 13]: 83.8%
- % Completion [1, 14]: 48.2% and 79.1% and 98.4% and 87.1% and 95.1% and 24.7% and 100.0% and 65.1%
- Average Response Latency (Avg Rsp Lat) [1, 14]: 1983.4 ms and 2543.8 ms and 1430.4 ms and 1376.1 ms and 2172.3 ms and 1933.4 ms and 2432.3 ms and 2505.1 ms
- Initial Correct, 3 Stimuli [1, 14]: 30.0% and 70.0% and 0.0% and 40.0%
- Initial Correct, 4 Stimuli [1, 14]: 0.0% and 12.5% and 30.0% and 10.0% and 60.0% and 20.0%
- Initial Correct, Overall Mean % Correct [1, 14]: 43.3% and 37.5% and 63.3% and 76.7% and 20.0% and 46.7% and 60.0%
- Initial correct, 2 Stimuli [1, 14]: 100.0% and 70.0% and 90.0% and 40.0%
- % Completion [1, 15]: 78.8%
- Average Response Latency (Avg Rsp Lat) [1, 15]: 2200.2 ms
- Eventual Correct, 2 Stimuli [1, 15]: 100.0%
- Eventual Correct, 3 Stimuli [1, 15]: 85.0%
- Eventual Correct, 4 Stimuli [1, 15]: 54.2%
- Eventual Correct, Overall Mean % Correct [1, 15]: 79.7%
- Initial Correct, 3 Stimuli [1, 15]: 48.8%
- Initial Correct, 4 Stimuli [1, 15]: 22.2%
- Initial Correct, Overall Mean % Correct [1, 15]: 49.5%
- Initial correct, 2 Stimuli [1, 15]: 77.5%
- Eventual Correct, 2 Stimuli ([1]; RG3487 1.0 mg/kg + scopolamine, individual animals): 100.0%
- % Completion [1, 16]: 70.4% and 84.7% and 100.0% and 97.1% and 94.2% and 27.7% and 96.4% and 60.3%
- Average Response Latency (Avg Rsp Lat) [1, 16]: 2560.1 ms and 2640.7 ms and 1701.5 ms and 1446.7 ms and 1640.8 ms and 2013.9 ms and 2805.9 ms and 2791.8 ms
- Eventual Correct, 3 Stimuli [1, 16]: 100.0% and 70.0% and 80.0% and 90.0%
- Eventual Correct, 4 Stimuli [1, 16]: 80.0% and 33.3% and 50.0% and 70.0% and 16.7%
- Eventual Correct, Overall Mean % Correct [1, 16]: 93.3% and 77.8% and 73.3% and 83.3% and 90.0% and 62.2% and 71.1% and 86.7%
- Initial Correct, 3 Stimuli [1, 16]: 70.0% and 50.0% and 20.0% and 80.0% and 30.0%
- Initial Correct, 4 Stimuli [1, 16]: 30.0% and 11.1% and 10.0% and 50.0% and 0.0% and 16.7%
- Initial Correct, Overall Mean % Correct [1, 16]: 66.7% and 37.0% and 30.0% and 60.0% and 70.0% and 33.3% and 38.9%
- Initial correct, 2 Stimuli [1, 16]: 100.0% and 50.0% and 60.0% and 80.0% and 70.0%
- Holm-Sidak Post-Hoc, Treatment+Scopolamine differs from Vehicle+Scopolamine: percent correct on initial attempt, 3-stimuli ([1]; all doses of the study): n.s.
- Holm-Sidak Post-Hoc, Treatment+Scopolamine differs from Vehicle+Scopolamine: Choice Response Latency [1, 17]: n.s.
- Holm-Sidak Post-Hoc, Treatment+Scopolamine differs from Vehicle+Scopolamine: Percent Task Completed [1, 17]: n.s.
- Holm-Sidak Post-Hoc, Treatment+Scopolamine differs from Vehicle+Scopolamine: percent correct on initial attempt, 2-stimuli [1, 17]: n.s.
- Holm-Sidak Post-Hoc, Treatment+Scopolamine differs from Vehicle+Scopolamine: percent correct on initial attempt, 4 stimuli [1, 17]: n.s.
- Percent Correct on Initial Attempt (SEM), 2 stimuli [1, 18]: 83.8% (4.6%)
- Percent Correct on Initial Attempt (SEM), 3 stimuli [1, 18]: 43.8% (10.5%)
- Percent Correct on Initial Attempt (SEM), 4 stimuli [1, 18]: 25.0% (7.8%)
- Percent Correct on Initial Attempt (SEM), 2 stimuli [1, 19]: 90.0% (3.3%)
- Percent Correct on Initial Attempt (SEM), 3 stimuli [1, 19]: 47.5% (8.0%)
- Percent Correct on Initial Attempt (SEM), 4 stimuli [1, 19]: 13.8% (6.5%)
- Percent Correct on Initial Attempt (SEM), 2 stimuli [1, 20]: 83.8% (7.1%)
- Percent Correct on Initial Attempt (SEM), 3 stimuli [1, 20]: 42.5% (9.0%)
- Percent Correct on Initial Attempt (SEM), 4 stimuli [1, 20]: 20.4% (7.5%)
- Percent Correct on Initial Attempt (SEM), 2 stimuli [1, 21]: 77.5% (6.2%)
- Percent Correct on Initial Attempt (SEM), 3 stimuli [1, 21]: 48.8% (8.3%)
- Percent Correct on Initial Attempt (SEM), 4 stimuli [1, 21]: 22.2% (5.6%)
- effect on scopolamine-induced impairment of eventual accuracy ([1]; dose range 0.03-1.0 mg/kg i.m.): not efficacious; also recorded: failed to improve eventual accuracy; also recorded: no reversal
- maximal peak current relative to acetylcholine (human nAChR α7 [2]): 69%
- net charge relative to acetylcholine (human nAChR α7 [2]): 53%
- 5-HT3 receptor antagonism (5-HT3 receptor): potent 5-HT3 receptor antagonists
- nM total compound in plasma from satellite animals, 60 min ([3]; 0.10 mg/kg i.m., individual subjects): 74.4 nM
- nM total compound in plasma from satellite animals, 60 min ([3]; 0.30 mg/kg i.m., individual subjects): 132.0 nM
- nM total compound in plasma from satellite animals, 60 min ([3]; 1.00 mg/kg i.m., individual subjects): 305.0 nM
- concentration at 60 min ([3]; 0.1 mg/kg, nM total compound in plasma from satellite animals, 60 min, 0.10 mg/kg i.m., individual subjects): 42.9 nM
- concentration at 60 min ([3]; 0.1 mg/kg, nM total compound in plasma from satellite animals, 60 min, 0.10 mg/kg i.m., mean): 58.7 nM
- concentration at 60 min ([3]; 0.3 mg/kg, nM total compound in plasma from satellite animals, 60 min, 0.30 mg/kg i.m., individual subjects): 114 nM
- concentration at 60 min ([3]; 0.3 mg/kg, nM total compound in plasma from satellite animals, 60 min, 0.30 mg/kg i.m., mean): 123 nM
- concentration at 60 min ([3]; 1 mg/kg, nM total compound in plasma from satellite animals, 60 min, 1.00 mg/kg i.m., individual subjects): 595 nM
- concentration at 60 min ([3]; 1 mg/kg, nM total compound in plasma from satellite animals, 60 min, 1.00 mg/kg i.m., mean): 450 nM
- concentration at 60 min ([3]; exposures (predicted and measured), 0.03-1 mg/kg im dose range): 15 to 450 nM
- concentration at 60 min ([3]; mean plasma concentrations, satellite animals 60 min post-administration, 0.1-1.0 mg/kg dose range): 58.7 to 450 nM
- maximal peak current, % of the acetylcholine response (human nAChR α7 [4]): 63%
